Legend:
caspase-3 = assay: Cleavage of caspase-3, HT1080 cells; assay type: cell-based, human; conditions: 2.5 μM
Method: Cells (2×10^6) were cultured in 10-cm dishes, collected using a cell scraper at 4° C., and lysed by addition of 150 μl cell lysis buffer [50 mM Tris pH 7.4, 150 mM NaCl, 10% glycerol, 0.5% Triton X-100. 0.5% NP-40, 2 mM Na3VO4, 20 mM beta-glycerophosphate, 10 mM NaF, 1 mM DTT, 1 mM PMSF). Lysates were centrifuged for 5 min at 10,000×g, and proteins (˜40 μg) were resolved by SDS-PAGE followed by semi-dry transfer to nitrocellulose membranes. Membranes were blocked in TBS-5% milk supplemented with 0.1% Tween-20. The blots were then probed overnight with relevant antibodies, washed, and incubated for 2 hours with species-specific secondary antibodies conjugated to horseradish peroxidase. After washing in block solution, immunoreactive material was detected by enhanced chemiluminescence (SuperSignal West Dura Extended, Pierce, Inc., Rockville, Ill.).
A. Effect of irestatin 9389 on PERK and ATF6 pathways. […] Protein lysates were analyzed by Western blot analysis using antisera specific for ATF6 (top), CHOP/GADD153 (middle) or actin (bottom). […] Cells were harvested, counted, and allowed to grow under normal culture conditions for 11-12 days. […] D. Quantification of clonogenic survival assay. […] F. Quantification of TUNEL-positive cells. […] Cells were harvested at the indicated times and counted by hemocytometer. Values represent the mean calculated from triplicate experiments+/−SEM. […]

[1] = tested on: HT1080 tet-off Flag-XBP-1s cells; assay: Colony formation of HT1080 tet-off Flag-XBP-1s cells under hypoxia; assay type: cell-based, human; conditions: 2.5 μM, hypoxia 48 hours
Method: A. Effect of irestatin 9389 on PERK and ATF6 pathways. HT1080 cells were treated with vehicle alone (lanes 1-4) or 2.5 μM irestatin 9389 (lanes 5-8) and cultured under aerobic conditions for 18 hours (N) or shifted to hypoxia for the indicated times. Protein lysates were analyzed by Western blot analysis using antisera specific for ATF6 (top), CHOP/GADD153 (middle) or actin (bottom). Arrow indicates the cleaved, transcriptionally active form of ATF6. B. Cleavage of caspase-3 in irestatin-treated cells under hypoxia. HT1080 cells were cultured in normoxia (N) or under hypoxia for 36 hours (H 36) in absence or presence of irestatin 9389 (2.5 μM). Arrows indicate proteolytically cleaved caspase-3. C. Colony formation assay. HT1080 cells were treated as in B under normoxia (N) or hypoxia for 48 hours (H 48). Cells were harvested, counted, and allowed to grow under normal culture conditions for 11-12 days. Colonies were visualized with crystal violet staining. D. Quantification of clonogenic survival assay. Values represent the mean+/−SEM from at least 4 independent experiments. E. TUNEL staining of cells treated as in C. F. Quantification of TUNEL-positive cells. Values represent the mean+/− SEM from at least 3 experiments. […] Cells were harvested at the indicated times and counted by hemocytometer. Values represent the mean calculated from triplicate experiments+/−SEM. […]

[2] = tested on: HT1080 s.c. tumor xenografts; assay type: in vivo
Method: Female 4-6 week-old SCID (B6.CB 17) mice supplied by Stanford University Animal Facility were housed in the same facility (American Association of Laboratory Animal Care-approved) with 12 hour light cycles. Food and water were provided ad libitum. All experiments were approved by the institutional care and use committee. The potential toxicities of irestatin 9389 were examined in SCID mice injected i.p. once daily over 4 consecutive days with increasing doses of irestatin 9389 or vehicle control. […] For xenografts, 2×10^6 HT1080 fibrosarcoma cells were resuspended in 50-75 μl PBS and injected s.c. in the dorsal flanks of host mice. When the implanted tumors reached a mean volume of ˜150 mm^3, mice were randomly assigned into different treatment groups. Mice were dosed by i.p. bolus injection with either vehicle (50% DMSO, 20% cremophor EL, 30% ethanol) or irestatin 9389 (50 mg/kg). Tumors (6-8 per group) were measured every 2-4 days with calipers. Tumor volume was calculated using the formula [(W^2×L) 0.52] where W=width and L=length.
A. Irestatin 9389 impairs IRE1α activity in implanted tumor xenografts. Equal numbers (2×10^6) of XBP-luciferase or CMV-luciferase reporter cells were implanted s.c. into SCID mice. After one week, mice were treated with irestatin 9389 (50 mg/kg), followed by optical bioluminescence imaging. B. Inhibition of tumor growth by irestatin 9389. HT1080 s.c. tumor xenografts were established in SCID mice and allowed to reach a mean volume of 150 mm^3 before treatment. Irestatin 9389 (50 mg/kg) or vehicle control was administered q 2d by i.p. injection and continued for 2 weeks, for a total of 6 doses. Tumor volumes were calculated based on caliper measurements taken every 3-5 days. Data points represent the mean volume calculated from at least 7 tumors per group, with SEM shown in one direction. Mean mouse weights+/−SEM are shown in bottom graph. C.
Next, we tested if treatment with irestatin 9389 could have a direct impact on tumor growth. […]

For `Cc1csc(NC(=O)CSc2nc3c(c(C(F)(F)F)c2C#N)CCC3)n1` [Compound 9389], the “cleavage of caspase-3” value (caspase-3; 36 hours of hypoxia) was “stimulated cleavage of caspase-3”, the caspase-3 processing (caspase-3; normal oxygen conditions) was “no effect on caspase-3 processing” and the decrease in viability ([1]; dox present (no Flag-XBP-1s)) was roughly 60 fold. For the same compound, the “survival of hypoxic cells expressing Flag-XBP-1s” value ([1]; no dox) was “minimal effect on the survival”, the antitumor effects ([2]; 50 mg/kg i.p. every other day, 6 doses) was “significant cytostatic antitumor effects” and the mean tumor volume ([2]; 50 mg/kg i.p. every other day, 6 doses, one week after the last treatment, P<0.01) was 480+/−210 mm^3. The “weight loss compared to vehicle-treated mice” value ([2]; mouse, in vivo) was “did not exhibit significant long-term weight loss”.

Source: patent publication US20130150399A1, “INHIBITORS OF THE UNFOLDED PROTEIN RESPONSE AND METHODS FOR THEIR USE” (The Board of Trustees of the Leland Stanford Junior …, priority 2006, published 2013)
